Non-standard residues stand in square brackets, D forms with d. Residues, ends and D or L forms follow the SMILES beside them. ξ: configuration not given here. *: point of attachment. X9 = CCc1cc(OC)ccc1-c1ccc(CC(NC(=S)[C@H](CC(=O)O)N*)C(=S)NC(CCCc2ccccc2F)C(N)=O)cc1; X8 = CCc1cc(OC)ccc1-c1ccc(CC(NC(=S)[C@H](CC(=O)O)N*)C(=S)NC(CCCc2ccccc2)C(N)=O)cc1; X4 = CCc1cc(OC)ccc1-c1ccc(CC(CNC(CCCc2ccccc2F)C(N)=O)N*)cc1; ξBip(2'-Et-4'-OMe) = CCc1cc(OC)ccc1-c1ccc(CC(N)C(=O)O)cc1; ξαMePhe(2-F) = CC(N)(Cc1ccccc1F)C(=O)O; aThr = C[C@H](O)[C@H](N)C(=O)O; ξhhPhe = NC(CCCc1ccccc1)C(=O)O; ξαMeP = CC1(C(=O)O)CCCN1; Aib = CC(C)(N)C(=O)O; Moc = COC(=O)*
Molecular target: T1, human glucagon receptor (Homo sapiens, UniProt P47871)
T1 construct: The full-length cDNA was cloned in pcDNA3.1 (Invitrogen); expressed in transfected cells
Assay: In vitro human glucagon antagonist activity (inhibition of cAMP production) in CHO/human glucagon R cells
Format: cell-based
Conditions: with saturated concentration of glucagon peptide
Protocol: The CHO-K1 cells (CRL 9618) were obtained from American Type Culture Collection (Rockville, Md.). CHO cells were grown in Ham's F12 medium containing L-Glutamine (2 mM), HEPES (25 mM), NaHCO3 (1.1 g/L) and supplemented with newborn Calf Serum (NBCS; 10%), Penicillin (50 U/ml (v/v)) and Streptomycin (50 ug/ml (v/v)). Cells were split every 3 days 1:8.
The full-length cDNA was cloned in pcDNA3.1 (Invitrogen). […] Clones expressing the receptor were generated by G418 (800 μg/ml active, Sigma) selection. The stable clones were thereafter maintained at 500 ug/ml (G418). The selected clone was used between passages 9-25 for cAMP assays.
The cells were trypsinized using 2 ml of TPVG (0.25% trypsin, 0.53 mM EDTA, 1.38-mM glucose). The trypsin was inactivated using Ham's F12 medium containing 10% NBCS and the cells were suspended in 2 ml of complete medium. […] The medium was aspirated off from the 12 well plate and the cells were washed once using Ham's F12 (plain). The cells were incubated at 37° C. with 500 ul of Ham's F12+1% BSA+0.125 mM RO-20 for 30 min. […] After the incubation, the medium was removed and cells were washed once with plain Ham's F12. Subsequently, the cells were lysed by adding 500 ul of ice cold 0.1 N HCl to each well and shaking for 30 minutes at 200 rpm. The cells were then scrapped, the lysate was collected in micro centrifuge tubes and centrifuged at 12000 rpm for 10 min to remove the debris. 300 ul of supernatant from each micro-centrifuge tube was then removed into a glass tube and dried under N2 for 30 min, for cAMP estimation. The total cAMP was estimated from the sample according to the manufacturer's protocol using Cyclic AMP immunoassay kit (R&D systems, Minneapolis. MN). The remaining supernatant is used to determine the protein concentration using micro BCA (Sigma). Data is calculated as percent of control (Vehicle: water) and expressed as Mean+SD.

T1 sequence (P47871 26-477): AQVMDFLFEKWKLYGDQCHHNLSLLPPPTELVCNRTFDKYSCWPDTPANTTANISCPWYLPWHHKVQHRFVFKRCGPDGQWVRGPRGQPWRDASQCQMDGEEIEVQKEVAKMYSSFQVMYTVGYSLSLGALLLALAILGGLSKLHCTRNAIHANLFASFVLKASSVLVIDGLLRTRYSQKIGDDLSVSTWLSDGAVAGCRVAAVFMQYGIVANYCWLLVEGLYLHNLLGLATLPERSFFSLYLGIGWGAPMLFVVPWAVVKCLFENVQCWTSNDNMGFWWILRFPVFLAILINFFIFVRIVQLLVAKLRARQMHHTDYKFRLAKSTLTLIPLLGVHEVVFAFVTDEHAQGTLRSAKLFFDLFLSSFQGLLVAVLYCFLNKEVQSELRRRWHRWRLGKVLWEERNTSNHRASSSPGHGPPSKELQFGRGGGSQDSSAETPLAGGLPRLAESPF

Row | Structure (SMILES) | Human Glucagon receptor antagonistic activity shown as inhibition of cAMP production of Glucagon peptide (1 nM test compound) | Human Glucagon receptor antagonistic activity shown as inhibition of cAMP production of Glucagon peptide (10 nM test compound) | Human Glucagon receptor antagonistic activity shown as inhibition of cAMP production of Glucagon peptide (100 nM test compound) | Human Glucagon receptor antagonistic activity shown as inhibition of cAMP production of Glucagon peptide (1 μM test compound) | Human Glucagon receptor antagonistic activity shown as inhibition of cAMP production of Glucagon peptide (10 μM test compound)
1 | CCc1cc(OC)ccc1-c1ccc(CC(NC(=O)[C@H](CC(=O)O)NC(=O)[C@H](CO)NC(=O)[C@@H](NC(=O)[C@H](Cc2ccccc2)NC(=O)[C@@H](NC(=O)CNC(=O)[C@H](CCC(N)=O)NC(=O)[C@H](CO)NC(=O)[C@@H](N)Cc2c[nH]cn2)[C@@H](C)O)[C@@H](C)O)C(=O)NC(CCCc2ccccc2)C(N)=O)cc1 (single isomer, unassigned) [compound 5] | 6 ± 0.02 pmol/ml/μg prt | 5 ± 0.04 pmol/ml/μg prt | 3 ± 0.14 pmol/ml/μg prt | 0 pmol/ml/μg prt | 0 pmol/ml/μg prt
2 | CCc1cc(OC)ccc1-c1ccc(CC(NC(=S)[C@H](CC(=O)O)NC(=O)[C@H](CO)NC(=O)[C@@H](NC(=O)C(C)(Cc2ccccc2F)NC(=O)[C@@H](NC(=O)CNC(=O)[C@H](CCC(N)=O)NC(=O)C(C)(C)NC(=O)[C@H](Cc2c[nH]cn2)NC(=O)OC)[C@@H](C)O)[C@@H](C)O)C(=S)NC(CCCc2ccccc2)C(N)=O)cc1 (single isomer, unassigned) [compound 170] | 6 ± 0.05 pmol/ml/μg prt | 5 ± 0.04 pmol/ml/μg prt | 2 ± 0.16 pmol/ml/μg prt | 0 pmol/ml/μg prt | 0 pmol/ml/μg prt
3 | CCc1cc(OC)ccc1-c1ccc(CC(NC(=S)[C@H](CC(=O)O)NC(=O)[C@H](CO)NC(=O)[C@@H](NC(=O)C(C)(Cc2ccccc2F)NC(=O)[C@@H](NC(=O)CNC(=O)[C@H](CCC(N)=O)NC(=O)C(C)(C)NC(=O)[C@@H](N)Cc2c[nH]cn2)[C@H](C)O)[C@H](C)O)C(=S)NC(CCCc2ccccc2)C(N)=O)cc1 (stereo partly drawn) [compound 177] (H-H[Aib]QG[aThr][ξαMePhe(2-F)][aThr]S-X8) | 0 pmol/ml/μg prt | 0 pmol/ml/μg prt | 0 pmol/ml/μg prt | 0 pmol/ml/μg prt | 0 pmol/ml/μg prt
4 | CCc1cc(OC)ccc1-c1ccc(CC(CNC(CCCc2ccccc2F)C(N)=O)NC(=O)[C@H](CC(=O)O)NC(=O)[C@H](CO)NC(=O)[C@@H](NC(=O)C(C)(Cc2ccccc2F)NC(=O)[C@@H](NC(=O)CNC(=O)[C@H](CCC(N)=O)NC(=O)C(C)(C)NC(=O)[C@H](Cc2c[nH]cn2)NC(=O)OC)[C@H](C)O)[C@H](C)O)cc1 (single isomer, unassigned) [compound 188] | 5 ± 0.04 pmol/ml/μg prt | 3 ± 0.15 pmol/ml/μg prt | 1 ± 0.15 pmol/ml/μg prt | 0 pmol/ml/μg prt | 0 pmol/ml/μg prt
5 | CCc1cc(OC)ccc1-c1ccc(CC(NC(=S)[C@H](CC(=O)O)NC(=O)[C@H](CO)NC(=O)[C@@H](NC(=O)C(C)(Cc2ccccc2F)NC(=O)[C@@H](NC(=O)CNC(=O)[C@H](CCC(N)=O)NC(=O)C(C)(C)NC(=O)[C@H](Cc2c[nH]cn2)NC(=O)OC)[C@@H](C)O)[C@@H](C)O)C(=S)NC(CCCc2ccccc2F)C(N)=O)cc1 (stereo partly drawn) [compound 172] (Moc-H[Aib]QGT[ξαMePhe(2-F)]TS-X9) | 4 ± 0.16 pmol/ml/μg prt | 2 ± 0.11 pmol/ml/μg prt | 0 pmol/ml/μg prt | 0 pmol/ml/μg prt | 0 pmol/ml/μg prt
6 | CCc1cc(OC)ccc1-c1ccc(CC(NC(=O)[C@H](CC(=O)O)NC(=O)[C@H](CO)NC(=O)[C@@H](NC(=O)[C@H](Cc2ccccc2)NC(=O)[C@@H](NC(=O)CNC(=O)[C@H](CCC(N)=O)NC(=O)C2(C)CCCN2C(=O)[C@@H](N)Cc2c[nH]cn2)[C@@H](C)O)[C@@H](C)O)C(=O)NC(CCCc2cccc(Cl)c2)C(N)=O)cc1 (single isomer, unassigned) [compound 11] | 3 ± 0.04 pmol/ml/μg prt | 0 pmol/ml/μg prt | 0 pmol/ml/μg prt | 0 pmol/ml/μg prt | 0 pmol/ml/μg prt
7 | CCc1cc(OC)ccc1-c1ccc(CC(NC(=O)[C@H](CC(=O)O)NC(=O)[C@H](CO)NC(=O)[C@@H](NC(=O)[C@H](Cc2ccccc2)NC(=O)[C@@H](NC(=O)CNC(=O)[C@H](CCC(N)=O)NC(=O)C2(C)CCCN2C(=O)[C@@H](N)Cc2c[nH]cn2)[C@@H](C)O)[C@@H](C)O)C(=O)NC(CCCc2ccccc2)C(N)=O)cc1 (stereo partly drawn) [compound 9] (H-H[ξαMeP]QGTFTSD[ξBip(2'-Et-4'-OMe)][ξhhPhe]-NH2) | 5 ± 0.02 pmol/ml/μg prt | 3 ± 0.15 pmol/ml/μg prt | 0 pmol/ml/μg prt | 0 pmol/ml/μg prt | 0 pmol/ml/μg prt
8 | CCc1cc(OC)ccc1-c1ccc(CC(CNC(CCCc2ccccc2F)C(N)=O)NC[C@H](CC(=O)O)NC(=O)[C@H](CO)NC(=O)[C@@H](NC(=O)C(C)(Cc2ccccc2F)NC(=O)[C@@H](NC(=O)CNC(=O)[C@H](CCC(N)=O)NC(=O)C(C)(C)NC(=O)[C@H](Cc2c[nH]cn2)NC(C)=O)[C@H](C)O)[C@H](C)O)cc1 (single isomer, unassigned) [compound 199] | 4 ± 0.06 pmol/ml/μg prt | 3 ± 0.11 pmol/ml/μg prt | 0 pmol/ml/μg prt | 0 pmol/ml/μg prt | 0 pmol/ml/μg prt
9 | CCc1cc(OC)ccc1-c1ccc(CC(CNC(CCCc2ccccc2F)C(N)=O)NC(=O)[C@H](CC(=O)O)NC(=O)[C@H](CO)NC(=O)[C@@H](NC(=O)C(C)(Cc2ccccc2F)NC(=O)[C@@H](NC(=O)CNC(=O)[C@H](CCC(N)=O)NC(=O)C(C)(C)NC(=O)[C@@H](N)Cc2c[nH]cn2)[C@H](C)O)[C@H](C)O)cc1 (stereo partly drawn) [compound 191] (H-H[Aib]QG[aThr][ξαMePhe(2-F)][aThr]SD-X4) | 4 ± 0.05 pmol/ml/μg prt | 2 ± 0.13 pmol/ml/μg prt | 2 ± 0.12 pmol/ml/μg prt | 0 pmol/ml/μg prt | 0 pmol/ml/μg prt

Reference: patent publication US8883963B2 (Cadila Healthcare Limited, priority 2007, dated 2014)
